This is an account of results in ChEMBL document CHEMBL5728216, “Cyclopropyl fused thiazine derivatives as beta-secretase inhibitors and methods of use” (2021).

By IC50 is commonly meant the point on the concentration scale where inhibition reaches its midpoint.

One assay addresses T1, Beta-secretase 2 (Homo sapiens, UniProt Q9Y5Z0).
T1 sequence (Q9Y5Z0 whole entry): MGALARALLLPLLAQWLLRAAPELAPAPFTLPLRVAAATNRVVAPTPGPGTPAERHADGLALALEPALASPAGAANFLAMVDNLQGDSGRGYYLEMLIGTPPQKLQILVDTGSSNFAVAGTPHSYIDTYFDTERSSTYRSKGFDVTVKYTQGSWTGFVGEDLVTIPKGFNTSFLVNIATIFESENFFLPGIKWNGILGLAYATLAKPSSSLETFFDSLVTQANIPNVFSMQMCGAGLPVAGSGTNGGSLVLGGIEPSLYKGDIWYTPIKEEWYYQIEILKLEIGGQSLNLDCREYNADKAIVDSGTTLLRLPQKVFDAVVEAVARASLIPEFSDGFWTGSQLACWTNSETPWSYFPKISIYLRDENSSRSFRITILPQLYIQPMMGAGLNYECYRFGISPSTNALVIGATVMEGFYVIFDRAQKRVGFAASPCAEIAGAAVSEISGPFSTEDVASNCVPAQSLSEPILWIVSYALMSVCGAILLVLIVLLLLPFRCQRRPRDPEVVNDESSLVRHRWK
As to the kind of experiment: These recombinant proteins were further purified using Ni-NTA affinity chromatography (Qiagen).

The target of another assay is Cathepsin D (Homo sapiens, UniProt P07339). As to the kind of experiment: In Vitro Enzymatic FRET Assay: Recombinant CatD was expressed in CHO cells. The assay buffer for CatD was 0.05 M citrate pH 3.5, 10% DMSO final, 5 mM CHAPS. The CatD enzyme (9 nM) was pre-incubated for one hour with inhibitors, typically in about 1 uL of DMSO according to a serial dilution, is added thereto. The assays was effectively started by the addition of different FRET substrates (20 nM for CatD) and the combination was incubated for one hour. The FRET assay was terminated with by addition of tris buffer, which raises the pH to neutrality, and the fluorescence was determined. The FRET substrate was a peptide with commercially available fluorophore and quencher, on opposite sides of the CatD cleavage site. The CatD substrate peptide sequence was based on sequence #1 of Table 1 from Gulnik et al., FEBS Lett. 413(2):379-384 (1997). Proteolytic cleavage of the FRET substrate released quenching of fluorescence (CatD excitation 500 nm and emission 580 nm). Type of assay: cell-based.

Another assay addresses Beta-secretase 1 (Homo sapiens, UniProt P56817). As to the kind of experiment: In Vitro Enzymatic FRET (Fluorescence Resonance Energy Transfer) Assays: The cDNAs for both human recombinant BACE1 and 2 with C-terminal 6-His Tags were cloned into transient protein expression vectors, which were subsequently transfected into mammalian cell lines. These recombinant proteins were further purified using Ni-NTA affinity chromatography (Qiagen). The assay buffer used in these screens was 0.05 M acetate, pH 4.5, 8% DMSO final, 100 μM genapol (which is a nonionic detergent, below its Critical Micelle Concentration). The β-secretase enzyme (0.02 nM for BACE1 and 0.64 nM for BACE2), which was pre-incubated for one hour with the test compound, typically in about 1 uL of DMSO according to a serial dilution, was added thereto. The assay was effectively started by the addition of FRET substrate (50 nM) and the combination was incubated for one hour. The FRET assay was terminated by the addition of tris buffer, which raised the pH to neutrality, and the fluorescence was determined. The FRET substrate was a peptide with commercially available fluorophore and quencher, on opposite sides of the BACE cleavage site. The specific FRET substrate used in this assay was made by Amgen in-house. […].

Sequence of Beta-secretase 1 (P56817 whole entry): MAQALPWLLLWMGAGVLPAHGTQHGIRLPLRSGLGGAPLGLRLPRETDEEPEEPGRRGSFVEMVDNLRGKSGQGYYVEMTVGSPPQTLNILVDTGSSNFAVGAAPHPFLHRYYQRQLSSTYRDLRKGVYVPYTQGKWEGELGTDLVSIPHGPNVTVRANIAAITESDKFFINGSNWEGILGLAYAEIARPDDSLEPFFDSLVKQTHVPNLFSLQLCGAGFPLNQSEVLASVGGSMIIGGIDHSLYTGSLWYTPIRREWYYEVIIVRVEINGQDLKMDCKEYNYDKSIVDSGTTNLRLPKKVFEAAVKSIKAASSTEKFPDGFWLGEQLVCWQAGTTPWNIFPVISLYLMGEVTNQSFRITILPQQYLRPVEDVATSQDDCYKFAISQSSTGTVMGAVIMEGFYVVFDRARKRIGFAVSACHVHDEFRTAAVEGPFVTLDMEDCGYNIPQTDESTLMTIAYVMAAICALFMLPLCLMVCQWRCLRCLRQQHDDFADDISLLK
Sequence of Cathepsin D (P07339 65-162 limits assumed): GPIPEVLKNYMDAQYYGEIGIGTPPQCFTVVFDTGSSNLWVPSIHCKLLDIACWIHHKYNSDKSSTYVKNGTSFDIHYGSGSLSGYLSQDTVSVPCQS
Sequence of Cathepsin D (P07339 169-412 limits assumed): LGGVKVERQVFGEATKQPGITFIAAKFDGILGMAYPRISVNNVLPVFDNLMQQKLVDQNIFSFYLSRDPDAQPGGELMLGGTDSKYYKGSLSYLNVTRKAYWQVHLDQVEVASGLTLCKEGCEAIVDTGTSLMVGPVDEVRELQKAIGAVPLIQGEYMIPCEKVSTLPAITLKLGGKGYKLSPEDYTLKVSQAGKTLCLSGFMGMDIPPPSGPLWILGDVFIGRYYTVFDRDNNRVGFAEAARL

With `COC[C@]12CC1[C@@](C)(c1cc(C#Cc3ncc(Cl)cc3C)ccc1F)N=C(N)S2` (stereo partly drawn), the figures for the IC50 on Beta-secretase 2, on Cathepsin D and on Beta-secretase 1 were 613 nM, greater than 400 µM and 129 nM, respectively.
